Columns and labels:
[1] = RP, Waters ACQUITY UPLC BEH C18, 100 × 1 mm, 1.7 µm, 50 °C, 0.3 mL/min, estimated dead time 0.17 min; A: water + 10 mM ammonium bicarbonate; B: 10% water + 90% methanol + 10 mM ammonium bicarbonate; gradient (min/%B) 0/0 15/100 21/100 22/0 30/0; conditions: stereoisomer not certain
[2] = RP, Waters ACQUITY UPLC BEH C18, 100 × 1 mm, 1.7 µm, 50 °C, 0.3 mL/min, estimated dead time 0.17 min; A: water + 0.1% formic acid + 20 mM ammonium formate; B: methanol + 0.1% formic acid + 20 mM ammonium formate; gradient (min/%B) 0/0 15/100 21/100 22/0 30/0; conditions: stereoisomer not certain

LC retention time [1] [min] | LC retention time [2] [min] | SMILES
13.9 | 14.9 | COc1ccc(Cl)cc1C(=O)NCCc1ccc(S(=O)(=O)NC(=O)NC2CCCCC2)cc1 [Glibenclamide]
14 | 11.6 | COc1cc2nc(N3CCN(C(=O)C4COc5ccccc5O4)CC3)nc(N)c2cc1OC (stereo not given) [Doxazosin]
13.6 | 9.28 | CN1CCc2cc3c(cc2C(=O)Cc2ccc4c(c2C1)OCO4)OCO3 [Protopin]
2.82 | 2.75 | Cn1cc[nH]c1=S [Methimazol]
17.4 | 17.1 | Cc1ccc(C=C2C(=O)C3(C)CCC2C3(C)C)cc1 (stereo not given) [4-Methylbenzylidene camphor]
16 | 15.6 | CC(=O)OCC(=O)C12OC3(CCCC3)OC1CC1C3CCC4=CC(=O)C=CC4(C)C3(F)C(O)CC12C (stereo not given) [Amcinonide]
10.2 | 6 | CC=C1CC2(CO)OC2(C)C(=O)OCC2=CCN3CCC(OC1=O)C23 (stereo not given) [Erucifoline]
10.4 | 6.96 | CC(C)NCC(O)COc1ccc(C(=O)O)cc1 (stereo not given) [Bisoprolol_M3]
6.74 | 7.89 | CN(Cc1cnc2nc(N)nc(N)c2n1)c1ccc(C(=O)NC(CCC(=O)O)C(=O)O)cc1 (stereo not given) [Methotrexate]
11.5 | 8.71 | Nc1ccc(Nc2ccccc2)cc1 [4-Aminodiphenylamine]
11.7 | 11 | CC=C(C)C(=O)OC1CC[N+]2([O-])CC=C(COC(=O)C(O)(C(C)OC)C(C)(C)O)C12 (stereo not given) [Lasiocarpine N-oxide]
13.6 | 7.37 | Cc1cc(C)c2ccccc2n1 [2,4-Dimethylchinolin]
13.2 | 12.7 | c1ccc2sc(N3CCOCC3)nc2c1 [2(4-morpholinyl)benzothiazole]
16.9 | 16.5 | CCCCCCCCSCCOCCO [2(2(octylsulfanyl)ethoxy)ethanol]
6.92 | 2.7 | Nc1cccc2c(N)cccc12 [1,5-Naphthalenediamine]
11.9 | 13.8 | COc1nc(NC(=O)NS(=O)(=O)c2ccccc2C(F)(F)F)nc(C(F)(F)F)n1 [Tritosulfuron]
7.5 | 8.16 | CCn1cc(C(=O)O)c(=O)c2cc(F)c(N3CCNCC3)cc21 [norfloxacin]
16.5 | 15.4 | COC(=O)C(c1ccccc1Cl)N1CCc2sccc2C1 (stereo not given) [Clopidogrel]

LC retention time [1] [min] | LC retention time [2] [min] | SMILES
6.95 | 8.56 | Cn1c(=O)nc(NC(C)(C)C)[nH]c1=O
11.2 | – | O=C(O)c1cccc(Oc2ccccc2)c1 [3-Phenoxybenzoic acid]
7.52 | – | CC1=C(C(=O)O)N2C(=O)C(NC(=O)C(N)c3ccccc3)C2SC1 (stereo not given) [Cefalexin]
14.2 | – | CC(=O)SC1CC2=CC(=O)CCC2(C)C2CCC3(C)C(CCC34CCC(=O)O4)C12 (stereo not given) [Spironolactone]
10.4 | – | NC12CC3CC(C1)CC(O)(C3)C2 [3-Amino-1-adamantanol]
9.28 | – | C[N+](C)(C)C[C@H](O)CC(=O)[O-] [L-Carnitin]
13.9 | – | CNCC(O)c1ccc(O)c(O)c1 (stereo not given) [Epinephrine]
14.3 | – | C#CC1(O)CCC2C3CCc4cc(O)ccc4C3CCC21C (stereo not drawn) [17-alpha-Ethinylestradiol]
2 | – | CC(Oc1c(Cl)cc(Cl)cc1Cl)C(=O)O (stereo not given) [2,4,6-Fenoprop]
13.3 | – | Cc1ccc(C)c(O)c1C [2,3,6-Trimethylphenol]
13.2 | – | O=C1CC=Cc2ncc3ccccc3c21 [Phenanthridinon]
4.21 | – | CC1(C)CC(O)CC(C)(C)N1 [2,2,6,6-Tetramethylpiperidin-4-ol]
14.9 | – | CCN(CC)CC(=O)Nc1c(C)cccc1C [Lidocaine]
13 | – | O=C(O)CC[C@@H](C(=O)O)N(CC(=O)O)CC(=O)O [N,N-Bis(carboxymethyl)-L-glutamic acid]
6.8 | – | OCCc1ccccn1 [2-(2-Pyridyl)ethanol]
11.6 | – | CSc1nnc(C(C)(C)C)c(=O)[nH]1 [Metribuzin-desamino]
12.3 | – | CCN(CC)CCNC(=O)c1cc(Cl)c(N)cc1OC [Metoclopramide]
7.87 | – | CC1(C)CC(=O)CC(C)(C)N1 [2,2,6,6-Tetramethyl-4 piperidone]

SMILES | LC retention time [1] [min] | LC retention time [2] [min]
CC(=O)OC12COC1CC(O)C1(C)C(=O)C(O)C3=C(C)C(O)CC(O)(C(OC(=O)c4ccccc4)C21)C3(C)C (stereo not given) [10-Deacetylbaccatin III] | 12 | 11.7
CCC(=O)C(CC(C)N(C)C)(c1ccccc1)c1ccccc1 (stereo not given) [Methadone] | 18.2 | 13.1
C=C1CC(=CC)C(=O)OC2CCN3CC=C(COC(=O)C1(C)O)C23 (stereo not given) [Seneciphylline] | 11.8 | 7.89
CN1C(=O)CN=C(C2=CCCCC2)c2cc(Cl)ccc21 [Tetrazepam] | 15.7 | 15
COc1ccc2c3c1OC1C(O)C=CC4C(C2)N(C)CCC341 (stereo not given) [Codein] | 12.1 | 6.77
CC=C(C)C(=O)OC1CCC2(C)C3CCC4C5(O)CC(O)C6(O)C(CN7CC(C)CCC7C6(C)O)C5(O)CC42OC13O (stereo not given) [Cevadine] | 16.4 | 12.6
O=C(Cc1ccccc1)NC(=NOCC1CC1)c1c(C(F)(F)F)ccc(F)c1F [Cyflufenamid] | 16.3 | 16
CC1C(=O)OC2CCN3CC=C(COC(=O)C(C)(O)C1(C)O)C23 (stereo not given) [Monocrotaline] | 8.97 | 5.17
CN1C2CC(OC(=O)C(CO)c3ccccc3)CC1C1OC12 (single isomer, unassigned; (-)) [(-)-Scopolamine] | 11.2 | 7.05
CC12C=CC3=C4CCC(=O)C=C4CCC3C1CCC2O (stereo not given) [Trenbolone] | 13.6 | 13.4
O=C1NCCN1Cc1ccc(Cl)nc1 [Imidacloprid-urea] | 8.68 | –
Cc1cc(C(C)(C)c2ccc(O)c(C)c2)ccc1O [Bisphenol C] | 13.9 | –
N#Cc1c[nH]cc1-c1cccc2c1OC(F)(F)O2 [Fludioxonil] | 14.4 | –
CNC(=O)C=C(C)OP(=O)(OC)OC [Monocrotophos (Crisodin)] | 8.11 | –
CCNc1nc(Cl)nc(NC(C)(C)C)n1 [Terbuthylazine] | 14.4 | –
CC(C)N(C(=O)CCl)c1ccccc1 [Propachlor] | 13.3 | –
CCN(CC)C(=O)C(C)Oc1cccc2ccccc12 (stereo not given) [Napropamide] | 15.1 | –
CC(C)N(Cc1ccccc1)C(=O)C(C)(C)C [Tebutam] | 14.3 | –
O=c1[nH]c2c(c(=O)n1C1CCCCC1)CCC2 [Lenacil] | 13.1 | –
CC(=O)c1cc2c(cc1C)C(C)(C)C(C)CC2(C)C (stereo not given) [Tonalide] | 18.2 | –

Reference: the RepoRT retention time repository (doi:10.1021/acs.analchem.1c00972)
